Source: patent US4315938A, “4-Phenyl-4,5,6,7-tetrahydro-pyrrolo [2,3-c] pyridines and salts thereof” (Boehringer Ingelheim Gmbh, priority 1979, dated 1982)
Read-outs that look alike come from different tables or passages of the source.

Legend:
[1] = tested on: hypothermic effect caused by reserpine; test: Reserpine antagonism (elimination of the hypothermic effect caused by reserpine); format: in vivo; details: Mus musculus, mice, oral, 17 h after 2 mg/kg i.p. reserpine
Experimental: A further test for determining anti-depressive activity is based on reserpine-antagonism, that is, the elimination of the hypothermic effect caused by reserpine. The test is carried out in mice, 5 animals being used per dosage test. Seventeen hours after i.p. administration of 2 mg/kg of reserpine, the body temperature is measured peripherally while at a room temperature of 19° C. Afterwards, the test substance is administered orally, and the body temperature is measured after 1, 3, 5 and 7 hours. For each measured period a mean effective dose (ED50) is determined. This is the dosage at which the body temperature of the animals treated with reserpine approaches the normal temperature of untreated controls by 50%.

[2] = tested on: uptake of serotonin by the neurons (synaptosomes); test: Inhibition of serotonin uptake by synaptosomes of homogenized cerebrum; format: biochemical; details: rat cerebrum synaptosomes, 10 minutes at 37° C.; read-out: Serotonin inhibition IC 50
Experimental: (§1) It is now believed that various forms of depression cause a deficiency of certain physiologically important amines, particularly noradrenaline and serotonin, in certain parts of the brain, and that the amount of such amines may be increased by inhibiting their uptake by neurons.
(§2) The test is performed on the homogenized, isolated cerebrum of the rat. A suspension of synaptosomes thus obtained is incubated with […] noradrenaline and/or serotonin and various concentrations of a solution of the test substance in water for 10 minutes at 37° C. When the incubation is finished, the medium is separated by filtering, and the radioactivity of the suspension of synaptosomes is measured.
(§3) A control test in the absence of the test substance is simultaneously carried out in order to determine the quantity of radioactive amines taken up. The quantity of the test substance in mols which is required to inhibit 50% of the uptake is designated the IC 50.

[3] = tested on: uptake of noradrenaline by the neurons (synaptosomes); test: Inhibition of noradrenaline uptake by synaptosomes of homogenized cerebrum; format: biochemical; details: rat cerebrum synaptosomes, 10 minutes at 37° C.; read-out: Noradrenaline inhibition IC 50
Experimental: as §1, §2, §3

[4] = 1 hour, read-out: Reserpine antagonism after 1 hour (ED50)
[5] = 3 hours, read-out: Reserpine antagonism after 3 hours (ED50)
[6] = 5 hours, read-out: Reserpine antagonism after 5 hours (ED50)
[7] = 7 hours, read-out: Reserpine antagonism after 7 hours (ED50)

For `CN1Cc2c(cc(CN3CCOCC3)n2C)C(c2ccccc2)C1` (stereo not drawn) [1,6-Dimethyl-2-morpholinomethyl-4-phenyl-4,5,6,7-tetrahydropyrrolo[2,3-c]pyridine], the ED50 [1, 4] was greater than 40 mg/kg, the ED50 [1, 5] was 16 mg/kg and the ED50 [1, 6] was 10 mg/kg. It also gave an ED50 [1, 7] of less than 40 mg/kg, an IC50 [2] of 1600 nM and an IC50 [3] of 6600 nM.

For `CN1Cc2c(cc(CN3CCCCC3)n2C)C(c2ccc(Br)cc2)C1` (stereo not drawn) [1,6-dimethyl-2-piperidino-methyl-4-(p-bromophenyl)-4,5,6,7-tetrahydro-pyrrolo-[2,3-c]pyridine dimaleate], the ED50 [1, 4] was greater than 40 mg/kg, the ED50 [1, 5] was 40 mg/kg and the ED50 [1, 6] was 40 mg/kg. For the same compound, the ED50 [1, 7] was greater than 40 mg/kg.

Compound `CN1Cc2c(ccn2C)C(c2ccc(F)cc2)C1.Cl` (stereo not drawn) [1,6-dimethyl-4-(p-fluorophenyl)-4,5,6,7-tetrahydro-pyrrolo-[2,3-c]pyridine hydrochloride] has an ED50 [1, 4] of less than 10 mg/kg, an ED50 [1, 5] of less than 10 mg/kg and an ED50 [1, 6] of less than 10 mg/kg. For the same compound, the ED50 [1, 7] was less than 10 mg/kg, the IC50 [2] was 180 nM and the IC50 [3] was 6700 nM.

`CN(CCO)Cc1cc2c(n1C)CN(C)CC2c1ccc(Br)cc1` (stereo not drawn) [1,6-dimethyl-2-N-methyl-N-β-hydroxyethyl-aminomethyl-4-(p-bromophenyl)-4,5,6,7-tetrahydro-pyrrolo[2,3-c]-pyridine dimaleate] gave an ED50 [1, 4] of 10 mg/kg, an ED50 [1, 5] of less than 10 mg/kg and an ED50 [1, 6] of 13 mg/kg. For the same compound, the ED50 [1, 7] was 10 mg/kg, the IC50 [2] was 380 nM and the IC50 [3] was 1300 nM.

`CN1Cc2c(cc(CN3CCCCCC3)n2C)C(c2ccc(Br)cc2)C1` (stereo not drawn) [1,6-dimethyl-2-hexahydro-azepine-1-yl-methyl-4-(p-bromophenyl)-4,5,6,7-tetrahydro-pyrrolo[2,3-c]-pyridine dimaleate] gave an ED50 [1, 4] of less than 10 mg/kg, an ED50 [1, 5] of less than 10 mg/kg and an ED50 [1, 6] of 20 mg/kg. For the same compound, the ED50 [1, 7] was greater than 40 mg/kg.

`CN1Cc2c(ccn2C)C(c2ccc(Br)cc2)C1` (stereo not drawn) [1,6-Dimethyl-4-(p-bromophenyl)-4,5,6,7-tetrahydro-pyrrolo[2,3-c]pyridine] was tested, and the ED50 [1, 4] was 20 mg/kg, the ED50 [1, 5] was 6 mg/kg and the ED50 [1, 6] was 40 mg/kg. It also gave an ED50 [1, 7] of 40 mg/kg, an IC50 [2] of 90 nM and an IC50 [3] of 1250 nM.

`CN1Cc2c(cc(Br)n2C)C(c2ccc(Br)cc2)C1` (stereo not drawn) [1,6-dimethyl-2-bromo-4-(p-bromophenyl)-4,5,6,7-tetrahydro-pyrrolo[2,3-c]-pyridine] showed an ED50 [1, 4] greater than 40 mg/kg, an ED50 [1, 5] of 14 mg/kg and an ED50 [1, 6] of less than 10 mg/kg. For the same compound, the ED50 [1, 7] was 10 mg/kg, the IC50 [2] was 440 nM and the IC50 [3] was 1800 nM.

Work on `CN1Cc2c(ccn2C)C(c2ccc(Cl)cc2)C1.Cl` (stereo not drawn) [1,6-dimethyl-4-(p-chlorophenyl)-4,5,6,7-tetrahydro-pyrrolo-[2,3-c]pyridine hydrochloride] yielded an ED50 [1, 4] of less than 10 mg/kg, an ED50 [1, 5] of less than 10 mg/kg and an ED50 [1, 6] of less than 10 mg/kg. The ED50 [1, 7] was less than 10 mg/kg, the IC50 [2] was 40 nM and the IC50 [3] was 1500 nM.

`Cc1ccc(C2CN(C)Cc3c2ccn3C)cc1.Cl` (stereo not drawn) [1,6-dimethyl-4-(p-tolyl)-4,5,6,7-tetrahydro-pyrrolo-[2,3-c]pyridine hydrochloride] was tested, and the ED50 [1, 4] was greater than 40 mg/kg, the ED50 [1, 5] was less than 10 mg/kg and the ED50 [1, 6] was 16 mg/kg. The ED50 [1, 7] was less than 10 mg/kg, the IC50 [2] was 40 nM and the IC50 [3] was 4900 nM.

Compound `CN1Cc2c(cc(CN3CCCC3)n2C)C(c2ccc(Br)cc2)C1` (stereo not drawn) [1,6-dimethyl-2-pyrrolidino-methyl-4-(p-bromophenyl)-4,5,6,7-tetrahydro-pyrrolo-[2,3-c]pyridine dimaleate] has an ED50 [1, 4] greater than 40 mg/kg, an ED50 [1, 5] of less than 10 mg/kg and an ED50 [1, 6] of 10 mg/kg. The ED50 [1, 7] was less than 10 mg/kg.

Compound `Cn1ccc2c1CNCC2c1ccc(Br)cc1.O=C(O)/C=C\C(=O)O` (stereo not drawn) [1-methyl-4-(p-bromophenyl)-4,5,6,7-tetrahydro-pyrrolo-[2,3-c]pyridine maleate] has an ED50 [1, 4] of 36 mg/kg, an ED50 [1, 5] of 10 mg/kg and an ED50 [1, 6] of 30 mg/kg. It also gave an ED50 [1, 7] of 40 mg/kg, an IC50 [2] of 530 nM and an IC50 [3] of 6900 nM.

`CCN1Cc2c(ccn2C)C(c2ccc(C)cc2)C1.Cl` (stereo not drawn) [1-methyl-4-(p-tolyl)-6-ethyl-4,5,6,7-tetrahydro-pyrrolo-[2,3-c]pyridine hydrochloride] showed an ED50 [1, 4] greater than 40 mg/kg, an ED50 [1, 5] of less than 10 mg/kg and an ED50 [1, 6] of 10 mg/kg. The ED50 [1, 7] was greater than 40 mg/kg, the IC50 [2] was 20 nM and the IC50 [3] was 600 nM.
